{
  "source": "patent US12344600B2",
  "about": "“c-Myc mRNA translation modulators and uses thereof in the treatment of cancer” (Anima Biotech Inc., priority 2022, dated 2025)",
  "tested_on": "c-Myc",
  "assay": "c-Myc immunofluorescence assay",
  "type": "cell-based, human",
  "conditions": "A549 cells, 24 hours, anti-c-Myc immunofluorescence",
  "how_it_was_run": "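A549 NSCLC cells grown 48 h, then treated 24 h with increasing compound concentrations; fixed in 4% paraformaldehyde, stained with anti-c-Myc antibody plus fluorescent secondary and DAPI. Per-cell c-Myc fluorescence quantified by high-content imaging at 20×; dose-response fitted by logistic regression to give EC50.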",
  "data": [
    {"smiles": "COc1ccccc1-c1noc(N2CCC(C(=O)NCC3CCN(Cc4ccc(C)cc4)C3)CC2)n1", "note": "(centres unmarked) [Compound 189, 1-(3-(2-methoxyphenyl)-1,2,4-oxadiazol-5-yl)-N-((1-(4-methylbenzyl)pyrrolidin-3-yl)methyl)piperidine-4-carboxamide]", "values": [
      {"measurement": "Myc Efficacy (−LogEC50)", "value": "+ (+ >3 and <5)"}
    ]},
    {"smiles": "COc1ccc(-c2noc(N3CCN(C(=O)N4CCC(OC)CC4)CC3)n2)cc1", "note": "[Compound 190, (4-(3-(4-methoxyphenyl)-1,2,4-oxadiazol-5-yl)piperazin-1-yl)(4-methoxypiperidin-1-yl)methanone]", "values": [
      {"measurement": "Myc Efficacy (−LogEC50)", "value": "+ (+ >3 and <5)"}
    ]},
    {"smiles": "CNC(=O)N1CCN(c2nc(-c3ccc(OC)cc3)no2)CC1", "note": "[Compound 191, 4-(3-(4-methoxyphenyl)-1,2,4-oxadiazol-5-yl)-N-methylpiperazine-1-carboxamide]", "values": [
      {"measurement": "Myc Efficacy (−LogEC50)", "value": "+ (+ >3 and <5)"}
    ]},
    {"smiles": "COc1ccc(-c2noc(N3CCC(C(=O)Nc4ccc(Cl)cc4)CC3)n2)cc1", "note": "[Compound 192, N-(4-chlorophenyl)-1-(3-(4-methoxyphenyl)-1,2,4-oxadiazol-5-yl)piperidine-4-carboxamide]", "values": [
      {"measurement": "Myc Efficacy (−LogEC50)", "value": "+ (+ >3 and <5)"}
    ]},
    {"smiles": "COc1ccc(-c2noc(N3CCN(C(=O)Nc4ccc(Cl)cc4)CC3)n2)cc1", "note": "[Compound 193, N-(4-chlorophenyl)-4-(3-(4-methoxyphenyl)-1,2,4-oxadiazol-5-yl)piperazine-1-carboxamide]", "values": [
      {"measurement": "Myc Efficacy (−LogEC50)", "value": "++ (++ ≥5 and <6)"}
    ]},
    {"smiles": "COc1ccc(-c2noc(N3CCN(C(=O)Nc4cccc(Cl)c4)CC3)n2)cc1", "note": "[Compound 194, N-(3-chlorophenyl)-4-(3-(4-methoxyphenyl)-1,2,4-oxadiazol-5-yl)piperazine-1-carboxamide]", "values": [
      {"measurement": "Myc Efficacy (−LogEC50)", "value": "+ (+ >3 and <5)"}
    ]},
    {"smiles": "COc1ccc(-c2noc(N3CCN(C(=O)Nc4ccccc4Cl)CC3)n2)cc1", "note": "[Compound 195, N-(2-chlorophenyl)-4-(3-(4-methoxyphenyl)-1,2,4-oxadiazol-5-yl)piperazine-1-carboxamide]", "values": [
      {"measurement": "Myc Efficacy (−LogEC50)", "value": "+ (+ >3 and <5)"}
    ]},
    {"smiles": "COc1ccc(-c2coc(N3CCC(C(=O)NCC4CCN(Cc5ccc(C)cc5)C4)CC3)n2)cc1", "note": "(centres unmarked) [Compound 196, 1-(4-(4-methoxyphenyl)oxazol-2-yl)-N-((1-(4-methylbenzyl)pyrrolidin-3-yl)methyl)piperidine-4-carboxamide]", "values": [
      {"measurement": "Myc Efficacy (−LogEC50)", "value": "++ (++ ≥5 and <6)"}
    ]},
    {"smiles": "COc1ccc(-c2noc(C3CCC(C(=O)NCC4CCN(CCO)C4)CC3)n2)cc1", "note": "(centres unmarked) [Compound 197, (1r,4r)-N-((1-(2-hydroxyethyl)pyrrolidin-3-yl)methyl)-4-(3-(4-methoxyphenyl)-1,2,4-oxadiazol-5-yl)cyclohexane-1-carboxamide]", "values": [
      {"measurement": "Myc Efficacy (−LogEC50)", "value": "+ (+ >3 and <5)"}
    ]},
    {"smiles": "Cc1ccc(CN2CCC(CNC(=O)C3CCN(c4nc(-c5cccc(C#N)c5)no4)CC3)C2)cc1", "note": "(centres unmarked) [Compound 198, 1-(3-(3-cyanophenyl)-1,2,4-oxadiazol-5-yl)-N-((1-(4-methylbenzyl)pyrrolidin-3-yl)methyl)piperidine-4-carboxamide]", "values": [
      {"measurement": "Myc Efficacy (−LogEC50)", "value": "++ (++ ≥5 and <6)"}
    ]},
    {"smiles": "Cc1ccc(CN2CCC(CNC(=O)C3CCN(c4nc(-c5cccc(O)c5)no4)CC3)C2)cc1", "note": "(centres unmarked) [Compound 199, 1-(3-(3-hydroxyphenyl)-1,2,4-oxadiazol-5-yl)-N-((1-(4-methylbenzyl)pyrrolidin-3-yl)methyl)piperidine-4-carboxamide]", "values": [
      {"measurement": "Myc Efficacy (−LogEC50)", "value": "+ (+ >3 and <5)"}
    ]},
    {"smiles": "O=C(NCc1cccnc1)C1CCN(c2nc(-c3ccncc3)no2)CC1", "note": "[Compound 200, N-(pyridin-3-ylmethyl)-1-(3-(pyridin-4-yl)-1,2,4-oxadiazol-5-yl)piperidine-4-carboxamide]", "values": [
      {"measurement": "Myc Efficacy (−LogEC50)", "value": "+ (+ >3 and <5)"}
    ]},
    {"smiles": "COc1ccc(-c2coc(N3CCC(C(=O)NCc4cccnc4)CC3)n2)cc1", "note": "[Compound 201, 1-(4-(4-methoxyphenyl)oxazol-2-yl)-N-(pyridin-3-ylmethyl)piperidine-4-carboxamide]", "values": [
      {"measurement": "Myc Efficacy (−LogEC50)", "value": "+ (+ >3 and <5)"}
    ]},
    {"smiles": "O=C(C1CCN(c2nc(-c3ccncc3)no2)CC1)N1CCOCC1", "note": "[Compound 202, morpholino(1-(3-(pyridin-4-yl)-1,2,4-oxadiazol-5-yl)piperidin-4-yl)methanone]", "values": [
      {"measurement": "Myc Efficacy (−LogEC50)", "value": "+ (+ >3 and <5)"}
    ]},
    {"smiles": "COc1ccc(-c2coc(N3CCC(C(=O)N4CCOCC4)CC3)n2)cc1", "note": "[Compound 203, (1-(4-(4-methoxyphenyl)oxazol-2-yl)piperidin-4-yl)(morpholino)methanone]", "values": [
      {"measurement": "Myc Efficacy (−LogEC50)", "value": "+ (+ >3 and <5)"}
    ]},
    {"smiles": "COc1ccc(-c2noc(N3CCC(C(=O)N4CCN(C)CC4)CC3)n2)cc1", "note": "[Compound 204, (1-(3-(4-methoxyphenyl)-1,2,4-oxadiazol-5-yl)piperidin-4-yl)(4-methylpiperazin-1-yl)methanone]", "values": [
      {"measurement": "Myc Efficacy (−LogEC50)", "value": "+ (+ >3 and <5)"}
    ]},
    {"smiles": "COc1ccc(-c2noc(N3CCC(C(=O)N4CCN(c5ccccc5)CC4)CC3)n2)cc1", "note": "[Compound 205, (1-(3-(4-methoxyphenyl)-1,2,4-oxadiazol-5-yl)piperidin-4-yl)(4-phenylpiperazin-1-yl)methanone]", "values": [
      {"measurement": "Myc Efficacy (−LogEC50)", "value": "+ (+ >3 and <5)"}
    ]},
    {"smiles": "COc1ccc(-c2noc(N3CCN(C(=O)NCC4CCN(C)C4)CC3)n2)cc1", "note": "(centres unmarked) [Compound 206, 4-(3-(4-methoxyphenyl)-1,2,4-oxadiazol-5-yl)-N-((1-methylpyrrolidin-3-yl)methyl)piperazine-1-carboxamide]", "values": [
      {"measurement": "Myc Efficacy (−LogEC50)", "value": "+ (+ >3 and <5)"}
    ]},
    {"smiles": "COc1ccc(-c2noc(N3CCN(C(=O)NCCCN4CCC(Cc5ccccc5)CC4)CC3)n2)cc1", "note": "[Compound 207, N-(3-(4-benzylpiperidin-1-yl)propyl)-4-(3-(4-methoxyphenyl)-1,2,4-oxadiazol-5-yl)piperazine-1-carboxamide]", "values": [
      {"measurement": "Myc Efficacy (−LogEC50)", "value": "+++ (+++ ≥6)"}
    ]},
    {"smiles": "COc1ccc(-c2noc(N3CCN(C(=O)NCCCN4CCC(C)CC4)CC3)n2)cc1", "note": "[Compound 208, 4-(3-(4-methoxyphenyl)-1,2,4-oxadiazol-5-yl)-N-(3-(4-methylpiperidin-1-yl)propyl)piperazine-1-carboxamide]", "values": [
      {"measurement": "Myc Efficacy (−LogEC50)", "value": "++ (++ ≥5 and <6)"}
    ]},
    {"smiles": "COc1ccc(-c2noc(N3CCN(C(=O)Nc4ccccc4)CC3)n2)cc1", "note": "[Compound 209, 4-(3-(4-methoxyphenyl)-1,2,4-oxadiazol-5-yl)-N-phenylpiperazine-1-carboxamide]", "values": [
      {"measurement": "Myc Efficacy (−LogEC50)", "value": "+ (+ >3 and <5)"}
    ]},
    {"smiles": "COc1ccc(-c2noc(N3CCC(C(=O)Nc4ccc(C)cc4)CC3)n2)cc1", "note": "[Compound 210, 1-(3-(4-methoxyphenyl)-1,2,4-oxadiazol-5-yl)-N-(p-tolyl)piperidine-4-carboxamide]", "values": [
      {"measurement": "Myc Efficacy (−LogEC50)", "value": "+ (+ >3 and <5)"}
    ]},
    {"smiles": "COc1ccc(-c2noc(N3CCC(C(=O)Nc4cccc(C)c4)CC3)n2)cc1", "note": "[Compound 211, 1-(3-(4-methoxyphenyl)-1,2,4-oxadiazol-5-yl)-N-(m-tolyl)piperidine-4-carboxamide]", "values": [
      {"measurement": "Myc Efficacy (−LogEC50)", "value": "+ (+ >3 and <5)"}
    ]},
    {"smiles": "COc1ccc(-c2noc(N3CCC(C(=O)Nc4cccc(Cl)c4)CC3)n2)cc1", "note": "[Compound 212, N-(3-chlorophenyl)-1-(3-(4-methoxyphenyl)-1,2,4-oxadiazol-5-yl)piperidine-4-carboxamide]", "values": [
      {"measurement": "Myc Efficacy (−LogEC50)", "value": "+ (+ >3 and <5)"}
    ]},
    {"smiles": "COc1ccc(-c2noc(N3CCC(C(=O)Nc4ccccc4C)CC3)n2)cc1", "note": "[Compound 213, 1-(3-(4-methoxyphenyl)-1,2,4-oxadiazol-5-yl)-N-(o-tolyl)piperidine-4-carboxamide]", "values": [
      {"measurement": "Myc Efficacy (−LogEC50)", "value": "+ (+ >3 and <5)"}
    ]},
    {"smiles": "COc1ccc(-c2noc(N3CCC(c4nc5ccccc5[nH]4)CC3)n2)cc1", "note": "[Compound 214, 5-(4-(1H-benzo[d]imidazol-2-yl)piperidin-1-yl)-3-(4-methoxyphenyl)-1,2,4-oxadiazole]", "values": [
      {"measurement": "Myc Efficacy (−LogEC50)", "value": "+ (+ >3 and <5)"}
    ]}
  ]
}
